Laboratory results from patent publication US12685735B2 (Foghorn Therapeutics Inc., priority 2020, dated 2026).
Read-outs that look alike come from different tables or passages of the source.

Legend:
[1] = target: BRG-1 (Homo sapiens, UniProt P51532); test: ATPase catalytic activity assay of BRG-1 (ADP-Glo); format: biochemical; settings: ATPase catalytic activity, ADP-Glo; for IC50: read-out: BRG1 IC50 (μM)*; for Emax: read-out: BRG1 Max % Inhibition
How it was run: (§1)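 Luminescent ADP-Glo readout of ADP generated by ATP hydrolysis. Post-reaction: ATP depletion reagent, RT 40 min; detection reagent converting ADP→ATP, RT 60 min; luminescence read.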

[2] = target: BRM (Homo sapiens, UniProt P51531); test: ATPase catalytic activity assay of BRM (ADP-Glo); format: biochemical; settings: for IC50: read-out: BRM IC50 (μM)*
BRM, sequence (P51531 whole entry): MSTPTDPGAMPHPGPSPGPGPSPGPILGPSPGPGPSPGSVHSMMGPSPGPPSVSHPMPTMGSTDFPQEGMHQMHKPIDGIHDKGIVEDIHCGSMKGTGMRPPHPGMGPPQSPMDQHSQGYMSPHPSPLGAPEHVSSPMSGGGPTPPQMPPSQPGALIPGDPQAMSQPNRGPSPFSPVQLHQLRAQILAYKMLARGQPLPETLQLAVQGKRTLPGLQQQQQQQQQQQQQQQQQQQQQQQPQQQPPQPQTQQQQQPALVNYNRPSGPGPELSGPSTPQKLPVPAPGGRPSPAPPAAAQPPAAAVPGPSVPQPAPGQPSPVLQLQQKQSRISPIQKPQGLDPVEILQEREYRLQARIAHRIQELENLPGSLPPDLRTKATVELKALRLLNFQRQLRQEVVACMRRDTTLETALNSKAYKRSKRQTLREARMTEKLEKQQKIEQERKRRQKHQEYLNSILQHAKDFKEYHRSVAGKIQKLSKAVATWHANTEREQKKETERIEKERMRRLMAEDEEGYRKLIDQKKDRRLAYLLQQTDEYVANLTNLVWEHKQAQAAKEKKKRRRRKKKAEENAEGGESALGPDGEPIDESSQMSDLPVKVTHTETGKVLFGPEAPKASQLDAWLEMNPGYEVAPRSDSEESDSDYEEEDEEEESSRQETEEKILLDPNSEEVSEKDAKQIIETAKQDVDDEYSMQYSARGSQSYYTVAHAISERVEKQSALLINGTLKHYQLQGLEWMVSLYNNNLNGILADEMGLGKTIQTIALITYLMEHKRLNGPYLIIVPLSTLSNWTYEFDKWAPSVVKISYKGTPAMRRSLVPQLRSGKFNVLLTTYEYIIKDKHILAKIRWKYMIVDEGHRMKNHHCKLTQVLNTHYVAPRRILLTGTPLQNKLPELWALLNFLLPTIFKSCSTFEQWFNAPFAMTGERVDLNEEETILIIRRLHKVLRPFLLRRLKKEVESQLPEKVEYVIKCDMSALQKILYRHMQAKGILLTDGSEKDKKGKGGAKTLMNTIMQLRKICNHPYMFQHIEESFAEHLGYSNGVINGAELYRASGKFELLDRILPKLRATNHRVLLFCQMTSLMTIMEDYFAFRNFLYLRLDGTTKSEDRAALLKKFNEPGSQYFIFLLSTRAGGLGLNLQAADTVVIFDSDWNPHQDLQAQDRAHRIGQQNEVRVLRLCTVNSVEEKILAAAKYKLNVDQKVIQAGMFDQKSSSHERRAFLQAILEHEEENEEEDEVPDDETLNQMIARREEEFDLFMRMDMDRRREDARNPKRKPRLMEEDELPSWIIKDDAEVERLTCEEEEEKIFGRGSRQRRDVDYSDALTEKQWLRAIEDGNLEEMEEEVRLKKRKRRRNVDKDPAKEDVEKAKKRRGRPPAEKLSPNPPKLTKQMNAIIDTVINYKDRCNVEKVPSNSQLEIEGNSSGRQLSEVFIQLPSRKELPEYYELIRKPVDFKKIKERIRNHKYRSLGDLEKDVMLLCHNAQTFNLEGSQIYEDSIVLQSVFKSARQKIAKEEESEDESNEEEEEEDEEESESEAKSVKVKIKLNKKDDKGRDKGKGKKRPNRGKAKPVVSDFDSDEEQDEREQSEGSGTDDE
How it was run: as §1

BRG-1, sequence (P51532 whole entry): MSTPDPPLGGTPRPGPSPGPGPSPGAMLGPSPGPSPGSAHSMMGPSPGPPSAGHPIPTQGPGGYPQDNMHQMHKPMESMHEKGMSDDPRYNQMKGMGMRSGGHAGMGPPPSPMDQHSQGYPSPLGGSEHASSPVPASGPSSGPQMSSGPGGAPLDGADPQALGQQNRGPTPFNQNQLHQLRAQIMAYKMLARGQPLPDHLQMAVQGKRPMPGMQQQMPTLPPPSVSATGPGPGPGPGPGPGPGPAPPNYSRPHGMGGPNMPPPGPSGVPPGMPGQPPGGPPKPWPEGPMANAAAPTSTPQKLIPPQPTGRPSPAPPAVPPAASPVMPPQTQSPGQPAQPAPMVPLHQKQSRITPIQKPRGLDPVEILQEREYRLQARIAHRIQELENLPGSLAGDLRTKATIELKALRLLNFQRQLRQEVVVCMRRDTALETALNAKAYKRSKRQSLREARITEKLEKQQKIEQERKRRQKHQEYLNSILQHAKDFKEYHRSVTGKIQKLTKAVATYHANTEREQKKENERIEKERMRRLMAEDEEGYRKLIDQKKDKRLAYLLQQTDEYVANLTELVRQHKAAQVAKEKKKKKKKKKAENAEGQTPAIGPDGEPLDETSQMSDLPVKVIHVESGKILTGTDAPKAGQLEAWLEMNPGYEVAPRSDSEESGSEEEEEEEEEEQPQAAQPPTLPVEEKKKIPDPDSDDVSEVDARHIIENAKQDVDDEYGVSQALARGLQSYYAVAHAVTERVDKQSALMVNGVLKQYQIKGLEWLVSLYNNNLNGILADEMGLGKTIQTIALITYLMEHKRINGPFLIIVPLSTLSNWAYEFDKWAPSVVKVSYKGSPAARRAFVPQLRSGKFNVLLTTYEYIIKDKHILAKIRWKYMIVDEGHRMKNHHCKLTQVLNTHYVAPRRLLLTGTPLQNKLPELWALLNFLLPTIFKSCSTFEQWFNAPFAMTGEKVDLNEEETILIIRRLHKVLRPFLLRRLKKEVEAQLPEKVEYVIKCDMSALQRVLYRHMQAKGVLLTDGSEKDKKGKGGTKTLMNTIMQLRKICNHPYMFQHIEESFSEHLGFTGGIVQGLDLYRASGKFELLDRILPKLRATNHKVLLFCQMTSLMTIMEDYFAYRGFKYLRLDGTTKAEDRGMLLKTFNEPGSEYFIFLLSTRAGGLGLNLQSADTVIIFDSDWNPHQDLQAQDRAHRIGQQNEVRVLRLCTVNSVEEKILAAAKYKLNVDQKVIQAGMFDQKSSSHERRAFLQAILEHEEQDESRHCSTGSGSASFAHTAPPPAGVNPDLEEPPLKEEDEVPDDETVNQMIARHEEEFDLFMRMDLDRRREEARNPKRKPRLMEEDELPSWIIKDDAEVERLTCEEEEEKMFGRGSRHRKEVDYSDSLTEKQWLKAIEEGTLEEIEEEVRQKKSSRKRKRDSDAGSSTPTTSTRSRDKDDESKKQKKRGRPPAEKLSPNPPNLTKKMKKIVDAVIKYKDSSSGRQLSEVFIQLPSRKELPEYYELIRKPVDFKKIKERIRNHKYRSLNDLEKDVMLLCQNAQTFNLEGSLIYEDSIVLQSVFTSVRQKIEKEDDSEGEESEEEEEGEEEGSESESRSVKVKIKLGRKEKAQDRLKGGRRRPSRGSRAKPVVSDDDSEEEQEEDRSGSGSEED

Structure (SMILES) | IC50 [1] [µM] | Emax [1] [%] | BRM Max % Inhibition [2] [%] | IC50 [2] [µM] | IC50 ([1]; 30 nM BRG-1, 400 μM ATP) [µM] | Emax ([1]; 30 nM BRG-1, 400 μM ATP) [%] | BRM Max % Inhibition ([2]; 30 nM BRM, 400 μM ATP) [%] | IC50 ([2]; 30 nM BRM, 400 μM ATP) [µM] | BRG1 Max % Inhibition [1] [%]
CC(C)(C#N)c1cccc(C(=O)NCC(=O)Nc2nc(-c3cccc(-c4ccncc4)c3)cs2)c1 [Compound 87, 3-(2-cyanopropan-2-yl)-N-(2-oxo-2-((4-(3-(pyridin-4-yl)phenyl)thiazol-2-yl)amino)ethyl)benzamide] | > 5 | < 30 | >80 | 0.1 to 1 |  |  |  |  | 
C[C@@H]1CN(c2cccc(-c3csc(NC(=O)[C@H](C)NC(=O)c4ccnc(C(C)(C)C)c4)n3)c2)C[C@H](C)O1 [Compound 435, 2-(tert-butyl)-N-((S)-1-((4-(3-((cis)-2,6-dimethylmorpholino)phenyl)thiazol-2-yl)amino)-1-oxopropan-2-yl)isonicotinamide] |  |  |  |  | 1 to 5 | > 95 | >95 | 0.1 to 1 | 
C[C@@H]1CN(c2cccc(-c3csc(NC(=O)CNC(=O)c4ccc5c(c4)[C@H]([C@H](C)O)CC5)n3)n2)C[C@H](C)O1 [Compound 141, (3R)-N-[2-[[4-[6-[(cis)-2,6-dimethylmorpholin-4-yl]-2-pyridyl]thiazol-2-yl]amino]-2-oxo-ethyl]-3-[(1S)-1-hydroxyethyl]indane-5-carboxamide] | > 5 | > 60 | >80 | 0.1 to 1 |  |  |  |  | 
Cn1ccc2ccc(-c3csc(NC(=O)CNC(=O)c4ccc5c(c4)[C@@](C)(C#N)CCO5)n3)cc2c1=O [Compound 433, (S)-4-cyano-4-methyl-N-(2-((4-(2-methyl-1-oxo-1,2-dihydroisoquinolin-7-yl)thiazol-2-yl)amino)-2-oxoethyl)chromane-6-carboxamide] |  |  |  |  | 0.1 to 1 | > 95 | >95 | < 0.1 | 
C[C@@]1(C#N)COCc2ccc(C(=O)NCC(=O)Nc3nc(-c4cccc(C(F)F)c4)cs3)cc21 [Compound 398, (R)-4-cyano-N-(2-((4-(3-(difluoromethyl)phenyl)thiazol-2-yl)amino)-2-oxoethyl)-4-methylisochromane-6-carboxamide] | 0.1 to 1 | > 95 | >95 | < 0.1 |  |  |  |  | 
COc1cccc(-c2csc(NC(=O)[C@H](C)NC(=O)c3ccc4c(c3)[C@](C)(F)COC4)n2)c1 [Compound 309, (S)-4-fluoro-N-((S)-1-((4-(3-methoxyphenyl)thiazol-2-yl)amino)-1-oxopropan-2-yl)-4-methylisochromane-6-carboxamide] | 0.1 to 1 | > 95 | >95 | < 0.1 |  |  |  |  | 
C[C@@]1(C#N)COCc2ccc(C(=O)NCC(=O)Nc3nc(-c4cccc([C@H]5CC5(F)F)n4)cs3)cc21 [Compound 387, (R)-4-cyano-N-(2-((4-(6-((R)-2,2-difluorocyclopropyl)pyridin-2-yl)thiazol-2-yl)amino)-2-oxoethyl)-4-methylisochromane-6-carboxamide] | 1 to 5 | > 95 | >95 | < 0.1 |  |  |  |  | 
C[C@@H]1CN(c2cccc(-c3csc(NC(=O)CNC(=O)c4cccc([C@]5(C(F)F)CCOC5)c4)n3)c2)C[C@H](C)O1 [Compound 285] | 0.1 to 1 | > 95 | >95 | < 0.1 |  |  |  |  | 
C[C@@H]1CN(c2cccc(-c3csc(NC(=O)CNC(=O)c4ccc5c(c4)[C@](C)(C#N)CCO5)n3)n2)C[C@H](C)O1 [Compound 153, (R)-4-cyano-N-(2-((4-(6-((cis)-2,6-dimethylmorpholino)pyridin-2-yl)thiazol-2-yl)amino)-2-oxoethyl)-4-methylchroman-6-carboxamide] | < 0.1 | > 95 | >95 | < 0.1 |  |  |  |  | 
CC(C)(CN)c1cccc(C(=O)NCC(=O)Nc2nc(-c3cccc(-c4ccnc(C(F)(F)F)c4)c3)cs2)c1 [Compound 58, 3-(1-amino-2-methylpropan-2-yl)-N-(2-oxo-2-((4-(3-(2-(trifluoromethyl)pyridin-4-yl)phenyl)thiazol-2-yl)amino)ethyl)benzamide] | 1 to 5 | > 60 | >80 | 0.1 to 1 |  |  |  |  | 
C[C@@H]1CN(c2cccc(-c3csc(NC(=O)CNC(=O)c4ccc5c(c4)C4(CCO4)COC5)n3)n2)C[C@H](C)O1 (stereo partly drawn) [Compound 376, N-(2-((4-(6-((cis)-2,6-dimethylmorpholino)pyridin-2-yl)thiazol-2-yl)amino)-2-oxoethyl)spiro[isochromane-4,2′-oxetane]-6-carboxamide] | 0.1 to 1 | > 95 | >95 | < 0.1 |  |  |  |  | 
Cc1cc(-c2cccc(-c3csc(NC(=O)CNC(=O)c4ccc(C)c(S(=O)(=O)C(C)C)c4)n3)n2)ncn1 [Compound 110, 3-isopropylsulfonyl-4-methyl-N-[2-[[4-[6-(6-methylpyrimidin-4-yl)-2-pyridyl]thiazol-2-yl]amino]-2-oxo-ethyl]benzamide] | 0.1 to 1 | > 80 | >95 | < 0.1 |  |  |  |  | 
Cc1cc(-c2cccc(-c3csc(NC(=O)CNC(=O)c4cccc(S(=O)(=O)C(C)C)c4)n3)n2)ncn1 [Compound 117, 3-isopropylsulfonyl-N-[2-[[4-[6-(6-methylpyrimidin-4-yl)-2-pyridyl]thiazol-2-yl]amino]-2-oxo-ethyl]benzamide] | 0.1 to 1 | > 80 | >95 | < 0.1 |  |  |  |  | 
C[C@@H]1CN(c2cccc(-c3csc(NC(=O)CNC(=O)c4ccc5c(c4)[C@@](F)(C#N)COC5)n3)n2)C[C@H](C)O1 (single isomer, unassigned) [Compound 299] | 0.1 to 1 | > 95 | >95 | < 0.1 |  |  |  |  | 
COc1cccc(-c2csc(NC(=O)CNC(=O)c3ccc4c(c3)C(C)(F)CCCO4)n2)c1 (stereo in doubt) [Compound 325, (R)-5-fluoro-N-(2-((4-(3-methoxyphenyl)thiazol-2-yl)amino)-2-oxoethyl)-5-methyl-2,3,4,5-tetrahydrobenzo[b]oxepine-7-carboxamide] | 0.1 to 1 | > 95 | >95 | 0.1 to 1 |  |  |  |  | 
COCC(NC(=O)c1ccc2c(c1)[C@](C)(F)COC2)C(=O)Nc1nc(-c2cccc(C(F)F)c2)cs1 (stereo in doubt) [Compound 327, (S)-N-((R)-1-((4-(3-(difluoromethyl)phenyl)thiazol-2-yl)amino)-3-methoxy-1-oxopropan-2-yl)-4-fluoro-4-methylisochromane-6-carboxamide] | 0.1 to 1 | > 95 | >95 | < 0.1 |  |  |  |  | 
CC1(C#N)CCc2ccc(C(=O)NCC(=O)Nc3nc(-c4cccc(-c5ccncc5)c4)cs3)cc21 (single isomer, unassigned) [Compound 88] | > 5 |  | >50 | 0.1 to 1 |  |  |  |  | >30
CC(C)S(=O)(=O)c1cccc(C(=O)NCC(=O)Nc2nc(-c3cccc(N4C[C@@H](C)O[C@@H](C)C4)c3)cs2)c1 [Compound 14, N-(2-((4-(3-((2S,6R)-2,6-dimethylmorpholino)phenyl)thiazol-2-yl)amino)-2-oxoethyl)-3-(isopropylsulfonyl)benzamide] | 0.1 to 1 | > 80 | >95 | < 0.1 |  |  |  |  | 
